Tests used:
[1] = test system: Human immunodeficiency virus 1; assay: Antiviral activity against drug-resistant HIV1 with reverse transcriptase Y181C mutant infected in human MT4 cells assessed as virus-induced cell death by MTT method; format: functional; conditions: Human immunodeficiency virus 1, MT4; read-out: ED50 (the source's name)
[2] = test system: Human immunodeficiency virus 1; assay: Antiviral activity against wild type HIV1 NL4-3 infected in human MT4 cells assessed as virus-induced cell death by MTT method; format: functional; conditions: Human immunodeficiency virus 1, NL4-3, MT4; read-out: ED50 (the source's name)
[3] = test system: Human immunodeficiency virus 1; assay: Antiviral activity against drug-resistant HIV1 with reverse transcriptase K103N mutant infected in human MT4 cells assessed as virus-induced cell death by MTT method; format: functional; conditions: Human immunodeficiency virus 1, MT4; read-out: ED50 (the source's name)
[4] = biological target: Human immunodeficiency virus type 1 reverse transcriptase (Human immunodeficiency virus 1) (UniProt Q72547); assay: Inhibition of wild type HIV1 reverse transcriptase
[5] = Ratio of ED50 for drug resistant HIV1 with reverse transcriptase K103N mutant to wild type HIV1 NL4-3; format: functional
[6] = Ratio of ED50 for drug resistant HIV1 with reverse transcriptase Y181C mutant to wild type HIV1 NL4-3; format: functional

For `CSc1nc(N)c(C)c(C(=O)Cc2ccccc2)n1`, the EC50 [1] was over 25 µM, the EC50 [2] was over 25 µM and the EC50 [3] was over 25 µM. The ID50 [4] was over 20 µM.
`O=C1Nc2ccc(Cl)cc2[C@@](C#CC2CC2)(C(F)(F)F)O1` [EFAVIRENZ] showed an EC50 [1] of 0.008 µM and an EC50 [3] of 0.133 µM.
For `CSc1nc(N)c(C)c(C(=O)c2cccc(F)c2)n1`, the EC50 [1] was 0.779 µM, the Ratio EC50 [5] was 20 and the EC50 [2] was 0.034 µM. For the same molecule, the EC50 [3] was 0.695 µM, the ID50 [4] was 0.2 µM and the Ratio EC50 [6] was 23.
`CSc1nc(N)c(C)c(C(=O)c2ccccc2)n1` gave an EC50 [1] of 1.71 µM, a Ratio EC50 [5] of 28 and an EC50 [2] of 0.06 µM. The EC50 [3] was 1.67 µM, the ID50 [4] was 1.9 µM and the Ratio EC50 [6] was 28.
In the case of `CSc1nc(N)c(C)c(C(Cl)c2ccccc2)n1` (centres undefined), the EC50 [1] is reported as over 25 µM, the EC50 [2] is reported as 12 µM and the EC50 [3] is reported as over 25 µM. It also gave an ID50 [4] of over 20 µM.
`Cc1ccnc2c1NC(=O)c1cccnc1N2C1CC1` [NEVIRAPINE] gave an EC50 [1] of over 2 µM, a Ratio EC50 [5] of 17 and an EC50 [2] of 0.04 µM. It also gave an EC50 [3] of 0.68 µM.
For `CSc1nc(N)c(C)c(C(F)c2ccccc2)n1` (centres undefined), the EC50 [1] was over 25 µM, the EC50 [2] was over 25 µM and the EC50 [3] was over 25 µM. For the same molecule, the ID50 [4] was over 20 µM.
In the case of `CSc1nc(N)c(C)c(C(=O)CCc2ccccc2)n1`, the EC50 [1] is reported as over 25 µM, the EC50 [2] is reported as over 25 µM and the EC50 [3] is reported as over 25 µM. For the same molecule, the ID50 [4] was over 20 µM.
Molecule `CSc1nc(N)c(C)c(C(=O)c2cccc3ccccc23)n1` has an EC50 [1] of over 19.4 µM, an EC50 [2] of over 19.4 µM and an EC50 [3] of over 19.4 µM. It also gave an ID50 [4] of 2.7 µM.
Work on `CSc1nc(N)c(C)c(C(O)c2ccccc2)n1` (centres undefined) yielded an EC50 [1] of over 25 µM, an EC50 [2] of over 25 µM and an EC50 [3] of over 25 µM. It also gave an ID50 [4] of 7.7 µM.
Molecule `CSc1nc(N)c(C)c(/C(=N\O)c2ccccc2)n1` has an EC50 [1] of over 25 µM, an EC50 [2] of 10.5 µM and an EC50 [3] of over 25 µM. It also gave an ID50 [4] of over 20 µM.
Work on `CNc1nc(N)c(C)c(C(=O)c2ccccc2)n1` yielded an EC50 [1] of over 25 µM, an EC50 [2] of 3.4 µM and an EC50 [3] of over 25 µM. For the same molecule, the ID50 [4] was over 20 µM.
`COc1ccc(CSc2nc(Cc3c(Cl)cccc3Cl)c(C)c(=O)[nH]2)cc1` gave a Ratio EC50 [5] of 671, an EC50 [2] of 0.007 µM and an EC50 [3] of 4.7 µM.
In the case of `Cc1c(N)nc(S(C)(=O)=O)nc1C(=O)c1ccccc1`, the EC50 [1] is reported as 10.4 µM, the Ratio EC50 [5] is reported as 43 and the EC50 [2] is reported as 0.44 µM. The EC50 [3] was 19.1 µM, the ID50 [4] was 16 µM and the Ratio EC50 [6] was 23.

Reference: ChEMBL document CHEMBL1143432, “Towards novel S-DABOC inhibitors: synthesis, biological investigation, and molecular modeling studies” (2008)
